# Patent US20260125374A1, “PI3K-ALPHA INHIBITORS AND METHODS OF MAKING AND USING THE SAME” (Relay Therapeutics, Inc., priority 2021, published 2026)
# Marks after values point to notes of the source that are not given here.
# Assay: Polymorph screening (equilibration, anti-solvent, slow evaporation, slow cooling, temperature cycling, heating-cooling; XRPD and SFC)
# Format: physicochemical
# Protocol: This polymorph screening program of compound I-1 free form was performed with two batches of the pure enantiomer. Both batches are crystalline and is assigned as Form A. The polymorphic behaviors of the enantiomer were investigated by equilibration at 25° C. and 50° C., equilibration under a temperature cycle, crystallization from hot saturated solutions by slow cooling, slow evaporation, precipitation by addition of anti-solvent, and DSC heating-cooling cycle experiments. Relative stability of identified polymorphs was investigated by competitive slurry experiments.
# (§1) About 50 mg of I-1 Form A was weighed into a 2 mL glass vial and equilibrated in suitable amount of solvents (pretreated by molecular sieves) at 25° C. for 2 weeks with a stirring plate and with protection from light. Obtained suspensions were filtered with 0.45 μm nylon membrane and the solid parts (wet cake) were investigated by XRPD. When differences were observed, additional investigations were performed (e.g. DSC, TGA, ^1H-NMR, SFC).
# as §1, with “into” for “into a”, “vials” for “vial”, “50°” for “25°”, “10 days” for “2 weeks”, “investigation was” for “investigations were”
# I-1 Form A was dissolved in a good solvent. […] The solvents used were pretreated by molecular sieve. Precipitates were collected by filtration. The solid part (wet cake) was investigated by XRPD. […] When differences were observed, additional investigations were performed (e.g. DSC, TGA, ^1H-NMR, SFC).
# Based on approximate solubility results, I-1 Form A was dissolved in suitable amount of solvents (pretreated by molecular sieves). Obtained solutions were filtered by 0.45 μm nylon filter. […] Solid residues were examined for their polymorphic form. When differences were observed, additional investigations were performed (e.g. DSC, TGA, ^1H-NMR, SFC).
# Approximate 50 mg of batch I-1 Form A were dissolved in the minimal amount of selected solvents (without pretreatment by molecular sieves) at 50° C. Obtained solutions were filtered by 0.45 μm nylon filter. […] Precipitates were collected by filtration. The solid parts (wet cake) were investigated by XRPD. When differences were observed, additional investigations were performed (e.g. DSC, TGA, ^1H-NMR, SFC). When no precipitation was obtained or only a few solids were obtained, the solutions were placed at 5° C. for crystallization.
# About 50 mg of I-1 Form A was equilibrated in different solvents (pretreated by molecular sieves) under a temperature cycle between 5° C. to 50° C. at a heating/cooling rate of 0.2° C./min for 10 cycles and with protection from light. After 10 cycles, precipitates were collected at 5° C. by filtration. The solid parts (wet cake) were investigated by XRPD. When differences were observed, additional investigations were performed (e.g. DSC, TGA, 1H-NMR, SFC).
# Polymorphic behavior of I-1 Form A was investigated by two different heating-cooling cycles of DSC. Cycle 1:30° C. to 280° C. at 10° C./min; 280° C. to −20° C. at 20° C./min; reheat to 300° C. at 10° C./min. Cycle 2:30° C. to 280° C. at 10° C./min; 280° C. to-20° C. at 2° C./min; reheat to 300° C. at 10° C./min.
compound,measurement,setting,value
"N#Cc1c(-c2cc(NC(=O)c3cc(F)cc(C(F)(F)F)c3)c3c(c2)C(=O)N[C@H]3c2cc(F)ccc2Cl)ccc2ncnn12 [Compound I-1, (R)-N-(3-(2-chloro-5-fluorophenyl)-6-(5-cyano-[1,2,4]triazolo[1,5-a]pyridin-6-yl)-1-oxoisoindolin-4-yl)-3-fluoro-5-(trifluoromethyl)benzamide]",XRPD,equilibration at 50° C. for 10 days in Ethyl acetate,I-1 Form A
same,XRPD,equilibration at 50° C. for 10 days in Isopropyl acetate,I-1 Form A
same,XRPD,"equilibration at 50° C. for 10 days in MeOH/water(55:45, v/v) a.w. 0.7",I-1 Form A
same,XRPD,equilibration at 50° C. for 10 days in Methanol,III-1 Form A
same,ee %(SFC),"equilibration at 50° C. for 10 days in Methanol, SFC immediately after preparation",ee % (SFC): 48.4%*
same,XRPD,equilibration at 50° C. for 10 days in Methyl ethyl ketone,I-1 Form A
same,XRPD,"equilibration at 50° C. for 10 days in THF/water(85:15, v/v) a.w. 0.9",I-1 Form A
same,XRPD,equilibration at 50° C. for 10 days in Water,I-1 Form A
same,XRPD,equilibration at 50° C. for 10 days in t-Butyl methyl ether,I-1 Form A
same,ee %(SFC),"equilibration at 50° C. in 1,4-Dioxane, added I-1 Form B seeds and stirred for 4 days",ee %(SFC): 80.1%*
same,ee %(SFC),"equilibration at 50° C. in 1,4-Dioxane, with molecular sieve and stirred for 6 days",ee %(SFC): 88.26%*
same,ee %(SFC),"equilibration at 50° C. in 1,4-Dioxane, without molecular sieve and stirred for 6 days",ee %(SFC): 81.26%*
same,ee %(SFC),"equilibration at 50° C. in THF, added I-1 Form B seeds and stirred for 4 days",ee %(SFC): 82.5%*
same,ee %(SFC),"equilibration in ACN/water(80:20, v/v), 25° C., pH 7.27, III-1 Form A seeds, 3 days",ee %(SFC): 90.9%*
same,ee %(SFC),"equilibration in ACN/water(80:20, v/v), 25° C., pH 7.27, III-1 Form A seeds, 8 days",ee %(SFC): 89.3%*
same,ee %(SFC),"equilibration in ACN/water(80:20, v/v), 50° C., pH 4.48, 3 days",ee %(SFC): 89.6%*
same,ee %(SFC),"equilibration in ACN/water(80:20, v/v), 50° C., pH 4.48, 5 days",ee %(SFC): 88.9%*
same,ee %(SFC),"equilibration in ACN/water(80:20, v/v), 50° C., pH 6.79, 3 days",ee %(SFC): 67.4%*
same,ee %(SFC),"equilibration in EtOH/water(50:50, v/v), 50° C., pH 6.82, 3 days",ee %(SFC): 91.6%*
same,ee %(SFC),"equilibration in Methanol, 50° C., pH 6.21, 3 days",ee %(SFC): 87.9%*
same,ee %(SFC),"slow cooling 50° C. to 5° C. from 1,4-Dioxane, SFC immediately after preparation",ee %(SFC): −0.2%*
same,Comments (outcome),slow cooling 50° C. to 5° C. from ACN,clear solution
same,Comments (outcome),slow cooling 50° C. to 5° C. from Acetone,clear solution
same,Comments (outcome),slow cooling 50° C. to 5° C. from Benzyl alcohol,clear solution
same,Comments (outcome),slow cooling 50° C. to 5° C. from MEK,clear solution
same,Comments (outcome),slow cooling 50° C. to 5° C. from MeOH,clear solution
same,Comments (outcome),slow cooling 50° C. to 5° C. from THF,clear solution
same,XRPD,"slow evaporation at room temperature from 1,4-Dioxane",Amorphous form
same,XRPD,slow evaporation at room temperature from ACN,Amorphous form
same,XRPD,slow evaporation at room temperature from Acetone,Amorphous form
same,XRPD,slow evaporation at room temperature from MeOH,III-1D
same,XRPD,slow evaporation at room temperature from THF,Amorphous form
same,ee %(SFC),slow evaporation from MeOH (not pretreated by molecular sieves) at 25° C. for 12 days,ee %(SFC): 98.0%*
same,ee %(SFC),"slow evaporation from MeOH/DCM(1:1, v/v), added I-1 Form D seeds",ee %(SFC): 88.9%*
same,ee %(SFC),"slow evaporation from MeOH, SFC immediately after preparation",ee % (SFC): 68.6%*
same,Comments (outcome),"temperature cycling 5° C. to 50° C. in 1,4-Dioxane, target concentration: 250 mg/mL","Clear solution, target concentration: 250 mg/mL"
same,Comments (outcome),"temperature cycling 5° C. to 50° C. in THF/water(85:15, v/v) a.w. 0.9, target concentration: 250 mg/mL","Clear solution, target concentration: 250 mg/mL"
same,Comments (outcome),"temperature cycling 5° C. to 50° C. in Tetrahydrofuran, target concentration: 250 mg/mL","Clear solution, target concentration: 250 mg/mL"
same,XRPD,"temperature cycling 5° C. to 50° C., 10 cycles, in 2-MeTHF",I-1 Form A
same,XRPD,"temperature cycling 5° C. to 50° C., 10 cycles, in ACN/water(80:20, v/v) a.w. 0.9",I-1 Form A
same,XRPD,"temperature cycling 5° C. to 50° C., 10 cycles, in Acetone",I-1 Form A
same,XRPD,"temperature cycling 5° C. to 50° C., 10 cycles, in Acetone/water(60:40, v/v) a.w. 0.8",I-1 Form A
same,XRPD,"temperature cycling 5° C. to 50° C., 10 cycles, in Acetonitrile",I-1 Form A
same,XRPD,"temperature cycling 5° C. to 50° C., 10 cycles, in Benzyl alcohol",I-1 Form A
same,XRPD,"temperature cycling 5° C. to 50° C., 10 cycles, in EtOH/water(50:50, v/v) a.w. 0.9",I-1 Form A
same,XRPD,"temperature cycling 5° C. to 50° C., 10 cycles, in Ethanol",I-1 Form A
same,XRPD,"temperature cycling 5° C. to 50° C., 10 cycles, in Ethyl acetate",I-1 Form A
same,XRPD,"temperature cycling 5° C. to 50° C., 10 cycles, in MeOH/water(55:45, v/v) a.w. 0.7",I-1 Form A
same,ee %(SFC),"temperature cycling 5° C. to 50° C., 10 cycles, in MeOH/water(55:45, v/v), SFC immediately after preparation",ee %(SFC): 100.0%*
same,ee %(SFC),"temperature cycling 5° C. to 50° C., 10 cycles, in Methanol, SFC immediately after preparation",ee %(SFC): 89.4%*
same,XRPD,"temperature cycling 5° C. to 50° C., 10 cycles, in Methyl ethyl ketone",I-1 Form A
